Source: ChEMBL document CHEMBL1201862, “PubChem BioAssay data set” (2004)
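Where inhibition never reached the appropriate level, the endpoint shown equals the highest concentration tested. Otherwise, values were interpolated linearly from a five-concentration, 48-hour dose response in 96-well plates. Abbreviation: GI50, concentration required for 50% inhibition of growth.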 Activity calls are given as the source filed them. No stated cut-off is given here; in the data, active = GI50 up to about 1.1 µM and inactive = higher.

Tests used:
Experiment in all cases: growth of human tumour cells (NCI), 48 h
HCT-116 = tested on: HCT-116
HOP-62 = tested on: HOP-62
HOP-92 = tested on: HOP-92
HT-29 = tested on: HT-29
NCI-H23 = tested on: NCI-H23
NCI-H522 = tested on: NCI-H522
OVCAR-8 = tested on: OVCAR-8
RPMI-8226 = tested on: RPMI-8226
RXF 393 = tested on: RXF 393
SF-295 = tested on: SF-295
SK-MEL-28 = tested on: SK-MEL-28
SK-MEL-5 = tested on: SK-MEL-5
SK-OV-3 = tested on: SK-OV-3
SW-620 = tested on: SW-620
UACC-257 = tested on: UACC-257
UACC-62 = tested on: UACC-62
OVCAR-4 = tested on: OVCAR-4

Measured: GI50

C/C(CC(=O)Nc1cccc(Cl)c1C)=N\NC(=O)c1ccncc1
inactive: HCT-116 > 100 µM | HOP-62 > 100 µM | HOP-92 > 100 µM | HT-29 > 100 µM | NCI-H23 58.9 µM | NCI-H522 21.4 µM | OVCAR-8 > 100 µM | RPMI-8226 > 100 µM | RXF 393 29.1 µM | SF-295 > 100 µM | SK-MEL-28 > 100 µM | SK-MEL-5 > 100 µM | SK-OV-3 > 100 µM | SW-620 > 100 µM | UACC-257 > 100 µM | UACC-62 > 100 µM

O=[N+]([O-])c1ccc(-n2nnc(C3=NCCCN3)c2-c2ccc(Cl)cc2)cc1
inactive: HCT-116 89.1 µM | HOP-62 > 100 µM | HOP-92 > 100 µM | HT-29 58.5 µM | NCI-H23 > 100 µM | NCI-H522 > 100 µM | OVCAR-4 > 100 µM | OVCAR-8 > 100 µM | RPMI-8226 > 100 µM | RXF 393 73.1 µM | SF-295 > 100 µM | SK-MEL-28 32.7 µM | SK-MEL-5 82.2 µM | SK-OV-3 > 100 µM | SW-620 > 100 µM | UACC-257 67.1 µM | UACC-62 > 100 µM

C#CC1(O)c2ccccc2C(=O)c2ccccc21
inactive: HCT-116 > 100 µM | HOP-62 > 100 µM | HOP-92 21.6 µM | HT-29 > 100 µM | NCI-H23 > 100 µM | NCI-H522 > 100 µM | OVCAR-4 > 100 µM | OVCAR-8 > 100 µM | RXF 393 > 100 µM | SF-295 > 100 µM | SK-MEL-28 > 100 µM | SW-620 > 100 µM | UACC-257 > 100 µM

OC12CCCCCC1(N1CCOCC1)c1ccccc12 (stereo not given)
inactive: HCT-116 > 100 µM | HOP-62 > 100 µM | HT-29 > 100 µM | NCI-H23 > 100 µM | NCI-H522 > 100 µM | OVCAR-4 > 100 µM | OVCAR-8 > 100 µM | RPMI-8226 > 100 µM | RXF 393 > 100 µM | SF-295 > 100 µM | SK-MEL-28 > 100 µM | SK-MEL-5 > 100 µM | SK-OV-3 > 100 µM | SW-620 > 100 µM | UACC-257 > 100 µM | UACC-62 > 100 µM

O=C1O[C@@H](c2ccccc2)C[C@H]1CN1CCOCC1
inactive: HOP-62 > 100 µM | HOP-92 > 100 µM | HT-29 > 100 µM | NCI-H23 17 µM | NCI-H522 > 100 µM | OVCAR-4 > 100 µM | OVCAR-8 > 100 µM | RPMI-8226 14.6 µM | RXF 393 > 100 µM | SF-295 > 100 µM | SK-MEL-28 > 100 µM | SK-MEL-5 > 100 µM | SK-OV-3 68.1 µM | SW-620 > 100 µM | UACC-257 > 100 µM | UACC-62 > 100 µM

CCOC(=O)CC1=N/C(=N/C(=N)N[N+](=O)[O-])SC1
inactive: HCT-116 > 100 µM | HOP-62 > 100 µM | HOP-92 > 100 µM | HT-29 > 100 µM | NCI-H23 > 100 µM | NCI-H522 > 100 µM | OVCAR-4 > 100 µM | OVCAR-8 > 100 µM | RXF 393 > 100 µM | SF-295 > 100 µM | SK-MEL-28 > 100 µM | SK-MEL-5 > 100 µM | SK-OV-3 > 100 µM | SW-620 > 100 µM | UACC-257 > 100 µM | UACC-62 > 100 µM

CC1(Br)CC2OC3(Br)C=CC(C)(O)C2(CC1=O)C3(C)C (stereo not given)
inactive: HCT-116 > 92 µM | HOP-62 > 100 µM | HOP-92 64.4 µM | HT-29 > 100 µM | NCI-H23 > 100 µM | NCI-H522 53.3 µM | OVCAR-4 > 100 µM | OVCAR-8 > 100 µM | RPMI-8226 36.8 µM | SF-295 > 100 µM | SK-MEL-28 > 100 µM | SK-MEL-5 > 100 µM | SK-OV-3 > 100 µM | SW-620 > 100 µM | UACC-257 > 100 µM | UACC-62 99.1 µM

Cc1ccc(C(=O)C(C2=Nc3nnc(N)n3C2=O)C2=Nc3nnc(N)n3C2=O)cc1
inactive: HOP-92 > 100 µM | HT-29 > 100 µM | NCI-H23 > 100 µM | NCI-H522 > 100 µM | OVCAR-4 > 100 µM | OVCAR-8 > 100 µM | RPMI-8226 > 100 µM | RXF 393 > 100 µM | SF-295 > 100 µM | SK-MEL-28 > 100 µM | SK-MEL-5 > 100 µM | SK-OV-3 > 100 µM | SW-620 > 100 µM | UACC-257 > 100 µM | UACC-62 > 100 µM

CC(C)C(=O)Nc1nc2c(ncn2C2OC(CO)C(O)C2O)c(=O)[nH]1 (stereo not given)
inactive: HCT-116 > 100 µM | HOP-62 > 100 µM | HOP-92 > 100 µM | HT-29 > 100 µM | NCI-H23 > 100 µM | NCI-H522 > 100 µM | OVCAR-4 > 100 µM | OVCAR-8 > 100 µM | RPMI-8226 > 100 µM | RXF 393 > 100 µM | SF-295 > 100 µM | SK-MEL-28 > 100 µM | SK-MEL-5 > 100 µM | SK-OV-3 > 100 µM | SW-620 > 100 µM | UACC-257 > 100 µM | UACC-62 > 100 µM

O=Cc1ccc2c(c1-c1c(C=O)ccc3c1OCO3)OCO2
inactive: HCT-116 > 100 µM | HOP-62 > 100 µM | HT-29 > 100 µM | NCI-H23 > 100 µM | NCI-H522 > 100 µM | OVCAR-4 > 100 µM | OVCAR-8 > 100 µM | RPMI-8226 96.6 µM | SF-295 > 100 µM | SK-MEL-28 > 100 µM | SK-MEL-5 > 100 µM | SK-OV-3 > 100 µM | SW-620 > 100 µM | UACC-257 > 100 µM | UACC-62 > 100 µM

COCC(OC)C(CC=C(C#N)C#N)OC (stereo not given)
inactive: HCT-116 > 100 µM | HOP-62 > 100 µM | HOP-92 > 100 µM | HT-29 > 100 µM | NCI-H23 > 100 µM | NCI-H522 > 100 µM | OVCAR-4 > 100 µM | OVCAR-8 > 100 µM | RPMI-8226 > 100 µM | SF-295 > 100 µM | SK-MEL-28 > 100 µM | SK-MEL-5 > 100 µM | SK-OV-3 > 100 µM | SW-620 > 100 µM | UACC-257 > 100 µM | UACC-62 > 100 µM

CCN(CC)CCNc1ccc2nnn3c4ccc(OC)cc4c(=O)c1c23
inactive: HCT-116 2.16 µM | HOP-62 11.1 µM | HOP-92 6.07 µM | HT-29 3.74 µM | NCI-H23 8.49 µM | NCI-H522 6.7 µM | OVCAR-4 6.46 µM | OVCAR-8 4.31 µM | RPMI-8226 2.82 µM | SF-295 5.14 µM | SK-MEL-28 15.6 µM | SK-MEL-5 12.5 µM | SK-OV-3 10.2 µM | SW-620 3.58 µM | UACC-257 12.5 µM | UACC-62 12.9 µM

CC1SC2=NC3=C(c4ccccc4C3=O)C(c3ccc(Br)cc3)N2C1=O (stereo not given)
inactive: HOP-62 > 100 µM | HOP-92 29 µM | HT-29 > 100 µM | NCI-H23 40.8 µM | NCI-H522 19.3 µM | OVCAR-4 41.4 µM | OVCAR-8 47.3 µM | RPMI-8226 31.6 µM | SF-295 56.9 µM | SK-MEL-28 43 µM | SK-MEL-5 41.2 µM | SK-OV-3 > 100 µM | SW-620 51.9 µM | UACC-257 > 100 µM | UACC-62 30.6 µM

Cn1c(=O)nc2n(-c3cccc(Br)c3)c3ccccc3nc-2c1=O
inactive: HCT-116 4.35 µM | HOP-62 14.8 µM | HT-29 2.82 µM | NCI-H23 1.61 µM | NCI-H522 6.62 µM | OVCAR-4 3.71 µM | OVCAR-8 3.56 µM | RPMI-8226 4.57 µM | RXF 393 11.5 µM | SF-295 5.73 µM | SK-MEL-5 1.75 µM | SK-OV-3 21.3 µM | SW-620 2.61 µM | UACC-257 2.09 µM | UACC-62 1.63 µM

NC(=O)N1N=C2c3ccccc3OC[C@H]2[C@@H]1c1ccccc1
inactive: HCT-116 5.6 µM | HOP-62 23.8 µM | HOP-92 13.8 µM | HT-29 27.6 µM | NCI-H23 22.6 µM | NCI-H522 3.3 µM | OVCAR-4 33.7 µM | OVCAR-8 5.07 µM | RPMI-8226 8.89 µM | RXF 393 2.72 µM | SF-295 4.21 µM | SK-MEL-28 25.5 µM | SK-MEL-5 1.91 µM | SK-OV-3 8.95 µM | SW-620 4.99 µM | UACC-257 10.9 µM | UACC-62 3.78 µM

CCOC(=O)C1(C(=O)OCC)OC(=O)NC2=C1CCCC2
inactive: HCT-116 > 100 µM | HOP-62 > 100 µM | HOP-92 > 100 µM | HT-29 > 100 µM | NCI-H23 > 100 µM | NCI-H522 > 100 µM | OVCAR-8 > 100 µM | RPMI-8226 > 100 µM | RXF 393 > 100 µM | SF-295 > 100 µM | SK-MEL-28 > 100 µM | SK-MEL-5 > 100 µM | SK-OV-3 > 100 µM | SW-620 > 100 µM | UACC-257 > 100 µM

COc1ccc2c(c1)CCc1c(-c3n[nH]c4c3CCc3cc(OC)ccc3-4)n[nH]c1-2
inactive: HCT-116 34.1 µM | HOP-62 24 µM | HOP-92 30.8 µM | HT-29 33.2 µM | NCI-H23 79.4 µM | NCI-H522 20.2 µM | OVCAR-8 37.8 µM | SF-295 17.2 µM | SK-MEL-28 33.8 µM | SK-MEL-5 30.8 µM | SK-OV-3 6.25 µM | SW-620 17.9 µM | UACC-257 21.5 µM | UACC-62 23.5 µM

N#CCCCCCOCCOCCOCCOCCOCCCCCC#N
inactive: HCT-116 > 100 µM | HOP-62 > 100 µM | HT-29 > 100 µM | NCI-H23 > 100 µM | NCI-H522 > 100 µM | OVCAR-4 > 100 µM | OVCAR-8 > 100 µM | RXF 393 > 100 µM | SF-295 > 100 µM | SK-MEL-28 > 100 µM | SK-MEL-5 > 100 µM | SK-OV-3 > 100 µM | SW-620 > 100 µM | UACC-257 81.1 µM | UACC-62 68.7 µM
